Values quoted from earlier work, collected in patent publication US6506600B2, “Secreting products from skin by adeno-associated virus (AAV) gene transfer” (University of Arkansas, priority 2000, dated 2003).

Tests used:
neutrophil count = details: patients with neutropenia due to chemotherapy; initial dose 5 microg/kg/day
[1] = tested on: pulmonary alveolar proteinosis; details: four PAP patients; subcutaneous once daily for 12 wk, 3 to 9 μg/kg/d
neutropenia = details: neonates <32 weeks gestation; 10 μg/kg/d subcutaneous for 5 days

Row | Substance | rise of neutrophil count (median) (neutrophil count) | symptomatic, physiologic and radiographic response [1] | serum half-life (serum) | effect on neutropenia (neutropenia) | t1/2 (in vivo)
1 | granulocyte macrophage colony stimulating factor [GM-CSF] | 6.6 fold | Three of the four patients experienced symptomatic, physiologic, and radiographic improvement | 8 h | completely abolished neutropenia | 
2 | hGH: human growth hormone, 22 kDa |  |  |  |  | 4 min
